Values of other authors, collected in patent publication US7446222B2, “Phenyl compounds” (Glaxo Group Limited, priority 2002, dated 2008).

Tests used:
[1] = biological target: T1, human EP1 prostanoid receptor (Homo sapiens, UniProt P34995); details: human EP1 prostanoid receptor ligand
T1 sequence (P34995 1-402): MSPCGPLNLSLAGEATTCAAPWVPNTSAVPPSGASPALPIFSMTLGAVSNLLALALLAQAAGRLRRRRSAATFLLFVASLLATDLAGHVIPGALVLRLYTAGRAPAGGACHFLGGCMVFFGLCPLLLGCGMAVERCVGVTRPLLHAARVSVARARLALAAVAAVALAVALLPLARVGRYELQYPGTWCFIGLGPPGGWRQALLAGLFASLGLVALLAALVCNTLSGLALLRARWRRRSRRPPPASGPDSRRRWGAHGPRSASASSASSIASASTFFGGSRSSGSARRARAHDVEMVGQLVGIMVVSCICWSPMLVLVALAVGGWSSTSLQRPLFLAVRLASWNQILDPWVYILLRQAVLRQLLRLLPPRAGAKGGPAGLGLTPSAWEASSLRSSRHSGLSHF

[2] = tested on: rodent model of post-operative pain
[3] = tested on: rat model of chronic constriction injury

Compound	potency compared with the comparable 2,3-diarylthiophene compound [1]	selectivity compared with the comparable 2,3-diarylthiophene compound [1]	effect on mechanical hyperalgesia [2]	effect on hyperalgesia and allodynia [3]
O=C(O)c1ccc(-c2ccccc2-c2ccccc2OCc2ccccc2)cc1 [2-benzyloxy[1,1′;2′,1″]terphenyl-4″-carboxylic acid]	less potent	less selective	–	–
Cc1cc(Cl)ccc1S(=O)(=O)NC[C@H]1C2CCC(CC2)[C@@H]1/C=C\CCCC(=O)O [ONO-8711]	–	–	inhibits mechanical hyperalgesia	reduces hyperalgesia and allodynia
